In PMC6844378, “Structure activity relationship studies on Amb639752: toward the identification of a common pharmacophoric structure for DGKα inhibitors” (Journal of Enzyme Inhibition and Medicinal Chemistry, 2019):
Entries after “also recorded” stand apart in the source; their conditions may differ.

Tests used:
DGKθ = target: T1, DGKθ (Homo sapiens, UniProt P52824); assay: Isoform specificity, DGKθ homogenates of transfected 293T cells; assay type: biochemical; conditions: 100 µM; 293T homogenates
T1 construct: expressed in transfected cells; host or cells: 293T cells, transient transfection (Lipofectamine 3000), crude homogenate
T1 sequence (P52824 1-942): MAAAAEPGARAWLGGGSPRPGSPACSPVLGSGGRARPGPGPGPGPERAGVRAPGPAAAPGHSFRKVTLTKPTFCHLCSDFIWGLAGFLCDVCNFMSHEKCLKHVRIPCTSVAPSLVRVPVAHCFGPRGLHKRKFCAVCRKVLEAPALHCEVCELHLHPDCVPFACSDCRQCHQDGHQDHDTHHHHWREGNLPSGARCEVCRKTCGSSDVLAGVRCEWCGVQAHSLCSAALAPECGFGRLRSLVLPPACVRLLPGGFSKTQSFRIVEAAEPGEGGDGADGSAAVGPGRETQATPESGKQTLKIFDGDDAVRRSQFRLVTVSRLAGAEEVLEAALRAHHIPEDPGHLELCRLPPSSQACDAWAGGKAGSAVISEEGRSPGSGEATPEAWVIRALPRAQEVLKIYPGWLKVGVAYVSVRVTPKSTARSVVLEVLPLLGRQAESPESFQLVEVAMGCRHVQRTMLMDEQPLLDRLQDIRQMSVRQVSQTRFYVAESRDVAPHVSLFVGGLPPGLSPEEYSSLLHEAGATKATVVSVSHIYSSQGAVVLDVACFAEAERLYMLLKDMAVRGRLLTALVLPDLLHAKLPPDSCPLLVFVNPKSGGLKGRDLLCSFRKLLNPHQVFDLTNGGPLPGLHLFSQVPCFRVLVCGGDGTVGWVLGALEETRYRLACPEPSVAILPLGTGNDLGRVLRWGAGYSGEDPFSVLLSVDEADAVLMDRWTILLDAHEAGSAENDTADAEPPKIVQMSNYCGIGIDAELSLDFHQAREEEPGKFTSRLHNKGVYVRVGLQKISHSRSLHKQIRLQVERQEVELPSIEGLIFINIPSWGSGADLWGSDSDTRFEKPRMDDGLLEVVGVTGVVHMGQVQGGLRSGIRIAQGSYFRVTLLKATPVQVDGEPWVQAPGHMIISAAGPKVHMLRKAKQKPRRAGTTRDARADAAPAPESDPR
Procedure: (§1) 293T cells were transiently transfected with indicated DGK isoform plasmid DNA using Lipofectamine 3000, Invitrogen (Carlsbad, CA). Forty eight hours after transfection, cells were harvested and homogenised with a 29 G-needle using 500 µL of homogenate buffer for each dish and immediately stored in aliquots at –80 °C. Cells transfected with empty vector were used as controls, overexpressed DGK has an activity >50 folds the endogenous.
(§2) Essentionally, the same procedure was followed as reported previously in Velnati et al.[9] In brief, DGK activity was assayed by measuring initial velocities (5 min at 27 °C) in presence of saturating substrate concentrations. Reaction conditions: 0.9 µg/µL 1,2-dioleoyl-sn-glycerol, 5 mM ATP, 0.01 µCi/µL [γ^32P]-ATP, 1 mM sodium orthovanadate, 10 mM MgCl2, 1.2 mM EGTA in 7.5 mM Hepes pH 8[12]. Reaction mixture is assembled mixing enzyme (24.5 µL of homogenate), 100× inhibitor or DMSO (0.5 µL), 5× ATP solution (10 µL of 25 mM ATP, 0.05 µCi/µL [γ^32P]-ATP (Perkin-Elmer, Milan, Italy), 5 mM sodium orthovanadate, 50 mM MgCl2), and 3.3× DAG solution (15 µL of 3 µg/µL 1,2-dioleoyl-sn-glycerol resuspended by sonication in 4 mM EGTA in 25 mM Hepes pH 8). […] TLC was run 10 cm and dried before radioactive signals were detected by GS-250 molecular imager and was quantified by quantity one (Bio-Rad, Hercules, CA) software assuring the absence of saturated spots. […]

serotonin receptors = system: serotonin receptors; design: method as in PMID 30611057; conditions: cited from earlier work
DGKα = DGKα (Homo sapiens, UniProt P23743); assay: Isoform specificity, DGKα homogenates of transfected 293T cells; assay type: biochemical; conditions: 100 µM; 293T homogenates
Sequence of DGKα (P23743 whole entry, canonical isoform): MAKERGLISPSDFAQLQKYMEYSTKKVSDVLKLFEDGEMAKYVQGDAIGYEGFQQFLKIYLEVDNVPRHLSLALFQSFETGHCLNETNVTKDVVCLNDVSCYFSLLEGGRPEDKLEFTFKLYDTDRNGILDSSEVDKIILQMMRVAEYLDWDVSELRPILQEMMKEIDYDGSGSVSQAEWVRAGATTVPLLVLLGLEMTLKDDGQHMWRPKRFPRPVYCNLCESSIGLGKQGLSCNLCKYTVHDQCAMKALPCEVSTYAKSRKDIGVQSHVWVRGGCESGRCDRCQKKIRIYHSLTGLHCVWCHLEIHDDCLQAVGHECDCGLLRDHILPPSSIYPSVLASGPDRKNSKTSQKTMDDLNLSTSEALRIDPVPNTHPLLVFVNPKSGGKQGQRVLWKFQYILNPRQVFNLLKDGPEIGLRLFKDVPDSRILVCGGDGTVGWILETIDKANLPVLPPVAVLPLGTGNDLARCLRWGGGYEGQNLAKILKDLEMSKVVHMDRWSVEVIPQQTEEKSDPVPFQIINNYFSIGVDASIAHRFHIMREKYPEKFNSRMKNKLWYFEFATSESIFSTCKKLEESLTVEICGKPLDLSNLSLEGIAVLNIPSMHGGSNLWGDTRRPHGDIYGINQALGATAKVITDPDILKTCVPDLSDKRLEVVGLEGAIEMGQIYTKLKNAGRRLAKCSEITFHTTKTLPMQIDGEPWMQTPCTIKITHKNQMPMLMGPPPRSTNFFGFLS
Procedure: as §1, §2

DGKζ = target: T2, DGKζ (Homo sapiens, UniProt Q13574); assay: Isoform specificity, DGKζ homogenates of transfected 293T cells; assay type: biochemical; conditions: 100 µM; 293T homogenates
T2 construct: expressed in transfected cells; host or cells: 293T cells, transient transfection (Lipofectamine 3000), crude homogenate
T2 sequence (Q13574 whole entry, species assumed, canonical isoform): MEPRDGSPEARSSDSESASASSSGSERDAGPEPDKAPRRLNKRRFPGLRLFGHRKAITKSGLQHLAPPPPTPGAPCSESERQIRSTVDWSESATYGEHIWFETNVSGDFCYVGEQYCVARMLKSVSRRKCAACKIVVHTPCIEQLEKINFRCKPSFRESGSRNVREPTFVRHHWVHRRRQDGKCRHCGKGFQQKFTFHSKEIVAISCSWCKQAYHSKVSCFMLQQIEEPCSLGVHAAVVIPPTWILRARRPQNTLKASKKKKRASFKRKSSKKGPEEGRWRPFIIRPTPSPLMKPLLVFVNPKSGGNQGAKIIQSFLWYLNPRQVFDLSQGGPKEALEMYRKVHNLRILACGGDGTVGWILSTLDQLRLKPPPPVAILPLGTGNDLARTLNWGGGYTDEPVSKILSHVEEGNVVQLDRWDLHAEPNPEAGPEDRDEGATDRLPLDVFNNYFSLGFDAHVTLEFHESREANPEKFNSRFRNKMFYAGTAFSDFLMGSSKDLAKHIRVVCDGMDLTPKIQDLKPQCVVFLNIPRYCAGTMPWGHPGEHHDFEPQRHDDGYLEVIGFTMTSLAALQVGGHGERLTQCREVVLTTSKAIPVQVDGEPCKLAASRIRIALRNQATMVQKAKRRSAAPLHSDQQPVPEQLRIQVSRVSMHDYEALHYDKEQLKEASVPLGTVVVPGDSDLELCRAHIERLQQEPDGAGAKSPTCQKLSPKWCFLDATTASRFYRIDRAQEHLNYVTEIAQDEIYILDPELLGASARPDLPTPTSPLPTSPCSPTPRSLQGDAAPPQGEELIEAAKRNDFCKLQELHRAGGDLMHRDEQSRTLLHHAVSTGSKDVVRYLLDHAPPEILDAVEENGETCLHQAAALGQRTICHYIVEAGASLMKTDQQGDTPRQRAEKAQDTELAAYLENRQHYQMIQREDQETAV
Procedure: as §1, §2

MCF7 cells = assay: Migration assay (serum induced wound healing); assay type: cell-based; conditions: 10 µM, 15 h, in presence of serum, vs vehicle (DMSO)
Procedure: Michigan Cancer Foundation 7 (MCF7) cells were cultured in DMEM with 10% FBS + 1% penicillin/streptomycin and cultures were maintained by splitting them for every 2–3 days using trypsin–EDTA 0.25%.
Cell migration assays were performed using the Culture-Insert 2 well in µ-Dish (ibidi GmbH, Martinsried, Germany).
Briefly, 25,000 MCF7 cells were plated in each well and cultured for 24 h. The day after, the culture insert was removed and the cells were washed with PBS before treating them with respective DGKα inhibitors (10 µM) or DMSO for 15 h in complete medium (DMEM 10% FBS + 1% penicillin/streptomycin), while medium without FBS was used as a negative control for migration.
Phase-contrast pictures were taken immediately after treatment (0 h) and after 15 h under 5× magnification.
Finally, wound areas were determined using ImageJ software (NIH, , Bethesda, MD). Wound reduction was calculated by using the following formula: (wound area at 15 h/wound at 0 h)×100, the values obtained were expressed as the percentage of wound area compared to the initial area.
To evaluate if our newly synthetised DGKα inhibitors were effective in impairing cancer cell migration, we measured serum induced wound healing in MCF7 breast cancer cells in presence of 10 µM inhibitor. […]
Figure 10. […] Results are expressed as the percentage of wound area compared to the initial area. […]

Row | SMILES | effect on DGKθ activity (DGKθ) | anti-serotoninergic activity (serotonin receptors) | inhibition of DGKα activity (DGKα) | effect on DGKζ activity (DGKζ) | cell migration (wound closure) (MCF7 cells)
1 | Cc1ccc2c(C(=O)CN3CCN(C(=O)c4ccco4)CC3)c(C)[nH]c2c1 [Amb639752] | do not have significant effects | no effects on serotonin activity; also recorded: devoid of anti-serotoninergic activity | completely inhibit | do not have significant effects | 
2 | Cc1ccc2c(C(=O)CN3CCN(C(=O)c4ccc(Cl)cc4)CC3)c(C)[nH]c2c1 [Compound 11, 2-(4-(4-Chlorobenzoyl)piperazin-1-yl)-1-(2,6-dimethyl-1H-indol-3-yl)ethan-1-one] |  |  |  |  | reduce the migration
3 | Cc1ccc(C(=O)N2CCN(CC(=O)c3c(C)[nH]c4cc(C)ccc34)CC2)cc1 [Compound 20, 1-(2,6-Dimethyl-1H-indol-3-yl)-2-(4-(4-methylbenzoyl)piperazin-1-yl)ethan-1-one] | activator |  |  |  | reduce the migration
